According to patent US9695219B2, “Polypeptide having antibacterial activity and angiogenesis-inducing activity and wound-healing drug containing said polypeptide” (priority 2009, dated 2017):
Values after ≈ are worked out from the molar mass of the structure shown. Each block holds one compound with its values, some of them ahead of it. Where a SMILES comes first, the peptide text is derived from it. Where no end group is shown, it is not given here. [ ]: non-standard residue; d: D form.

Legend:
MRSA (clinical strain 1) = assay: microbe, parasite or virus in culture; assay type: cell-based; details: Staphylococcus aureus, 37° C. for 20 hours, tested twice, first/second value where not matched
Method: (§1) Further, with respect to not only the above-described strains but also various other strains, the “minimum inhibitory concentration (MIC)” was measured as follows. MIC is the lowest concentration of an agent that may inhibit the growth of a bacterium. MIC is used as a parameter for the efficacy of an antibacterial agent, for the strength of bacterial sensitivity, or the like. The bacteria can grow (proliferate) when the concentration is not higher than MIC, and cannot grow when the concentration is higher than MIC. Its measurement is carried out according to a method defined as a standard method by Japanese Society of Chemotherapy or CLINICAL AND LABORATORY […] (CLSI), but, in this Example, its measurement was carried out by a broth microdilution method in accordance with “M100-S17/M7-A7” (Performance Standards for Antimicrobial Susceptibility Testing; Seventeenth Informational Supplement, Vol. 27 No. 1) published by CLSI on January, 2007. That is, sensitivity test of agents was carried out using a microtiter plate or test tubes.
(§2) The bacteria were cultured in liquid media for 4 to 6 hours, and thereafter absorbances at A600 were measured. Bacterial suspensions were diluted with Mueller-Hinton broth (MHB) according to McFarland #0.5. Each strain was added so as to attain about 10^5 CFU/ml (final concentration). Each peptide was prepared to an optional concentration, and the solutions were serially diluted from the concentration. The polypeptide at each concentration stage was added to a microplate or test tubes, and the bacterial suspension was added thereto. Chloramphenicol, amphotericin B, ciprofloxacin, meropenem (MEPM), ciprofloxacin (CPFX), tobramycin (TOB) and oxacillin (OX) were used as positive controls. The plate was incubated at 37° C. for 20 hours, and the lowest concentration where bacterial growth was inhibited was regarded as the minimum inhibitory concentration.

Staphylococcus aureus = assay: microbe, parasite or virus in culture; assay type: cell-based; details: 37° C. for 20 hours, tested twice, first/second value where not matched
Method: as §1, §2

[1] = test system: Staphylococcus epidermidis; assay: MIC measurement, broth microdilution; assay type: cell-based; details: 37° C. for 20 hours, tested twice, first/second value where not matched
Method: as §1, §2

MRSA (clinical strain 2) = assay: microbe, parasite or virus in culture; assay type: cell-based, Staphylococcus aureus; details: Staphylococcus aureus, MRSA; 37° C. for 20 hours; tested twice, first/second value where not matched
Method: as §1, §2

MSSA (clinical strain 1) = assay: microbe, parasite or virus in culture; assay type: cell-based, Staphylococcus aureus; details: 37° C. for 20 hours; tested twice, first/second value where not matched
Method: as §1, §2

MSSA (clinical strain 2) = assay: microbe, parasite or virus in culture; assay type: cell-based, Staphylococcus aureus; details: Staphylococcus aureus, MSSA; 37° C. for 20 hours; tested twice, first/second value where not matched
Method: as §1, §2

[2] = Antibacterial activity, ATP assay (BacTiter-Glo); assay type: cell-based, Enterobacter aerogenes; details: Table 7, mean values; peptides 10 μg/mL, TOB 4.0, OX 4.0, MEPM 0.5 μg/mL; 37° C. 3 hours; relative to negative control; read-out: Viability, Enterobacteria (2)
Method: The antibacterial activity of each of SR-08 and SR-07 polypeptides was measured using an ATP assay method. That is, using BacTiter-Glo Microbial Cell Viability Assay kit available from PROMEGA, the antibacterial activity of the peptides was evaluated from the viability of bacteria. In other words, ATP amount in viable bacteria in cases where the concentration of the peptides was 10 μg/mL was measured using a microtiter plate or test tubes. As controls, tobramycin (TOB), oxacillin (OX) and meropenem (MEPM) were used at the concentrations as respectively shown in Table 6 below.
With respect to the strains, Escherichia coli: ATCC 25922 (Escherichia coli ATCC 25922), Pseudomonas aeruginosa: ATCC 27853 (Pseudomonas aeruginosa ATCC 27853), Staphylococcus aureus: ATCC29213 (Staphylococcus aureus ATCC29213), Klebsiella pneumoniae: JCM 1662 (Klebsiella pneumoniae JCM 1662), enterobacteria (1): JCM 1232 (Enterobacter cloacae JCM 1232), and enterobacteria (2): JCM 1235 (Enterobacter aerogenes JCM 1235), were used.
The bacteria were cultured in media for 3 to 4 hours, and thereafter absorbances at A600 were measured. Bacterial suspensions were diluted with Mueller-Hinton broth (MHB) according to McFarland #0.5. Each strain was added so as to attain about 0.5-1×10^5 CFU/mL (final concentration) in terms of Escherichia coli. Each peptide was prepared and added to a microplate or test tubes so as to attain a final concentration of 10 μg/mL, and the bacterial suspension was added thereto. The plate was incubated at 37° C. for 3 hours, and the amount of ATP in the culture media was measured. Relative values were calculated by comparison with the negative control, and these values were regarded as the viability.

[3] = test system: Normal human dermal fibroblasts (NHDFs); assay type: cell-based
Method: Next, the effect of these polypeptides on the growth of human umbilical vein endothelial cells (HUVECs) was studied. A cell growth activity of the polypeptides was examined using Cell Counting Kit (WST-1) available from Dojindo Laboratories. As a negative control (Control), polypeptide-free group was used. Cells (human umbilical vein endothelial cells: HUVECs) were plated in a 96-well plate (0.5×10^4 cells/well/100 μL, serum 1%). About 3 hours after plating the cells, the polypeptides (1, 3, 10, 30 or 100 μg/ml) and FGF (100 ng/ml) as a positive control were individually added thereto in an amount of 100 μL. To the unstimulated group, only a medium was added in an amount of 100 μL. The plate was left to stand in a CO2 incubator for about 48 hours. Thereafter, WST-1 reagent was added to each well in an amount of 20 μL, and then the plate was left to stand in a CO2 incubator for about 2 hours. Absorbances at wavelengths of 450 nm and 620 nm were measured using Wallac 1420 ARVOsx (Program: WST-1). A value of O.D.450-O.D.620 was calculated for each measurement. […] The cell growth activity was evaluated on the basis of the ratio of Net O.D.450 of polypeptide-containing groups relative to Net O.D.450 of the unstimulated group.
Then, the effect on the growth of normal human dermal fibroblasts (NHDFs) was also studied by the same method as described above.

[4] = Stability in rat serum (HPLC); assay type: in vitro ADME; details: 37° C.
Method: (§3) The stability of the polypeptides in serum was evaluated. In human serum (purchased from KAC Co., Ltd.), or in rat serum obtained by collecting blood from a rat, then leaving the collected blood to stand at room temperature followed by centrifugation, each of the peptides was dissolved so as to attain a final concentration of 500 μg/mL, and the obtained solutions were left to stand at 37° C. After leaving to stand for 3 min or 10 min, these solutions were subjected to HPLC chromatogram analysis to detect peaks of the decomposition products, and calculate the ratio of the concentration of the peptides which remained in the solutions relative to the starting concentration. In addition, the half-lives of the peptides in serum were also calculated.

[5] = Stability in human serum (HPLC); assay type: in vitro ADME; details: 37° C.
Method: as §3

Clostridium ramosum = assay: microbe, parasite or virus in culture; assay type: cell-based; details: 37° C. for 20 hours; tested twice, first/second value where not matched
Method: as §1, §2

Fusobacterium nucleatum = assay: microbe, parasite or virus in culture; assay type: cell-based; details: 37° C. for 20 hours; tested twice, first/second value where not matched
Method: as §1, §2

Acinetobacter baumanni = assay type: cell-based; details: 37° C. for 20 hours; tested twice, first/second value where not matched
Method: as §1, §2

Fusarium solani = assay type: cell-based; details: 37° C. for 20 hours; tested twice, first/second value where not matched
Method: as §1, §2

Pseudomonas aeruginosa = assay type: cell-based; details: 37° C. for 20 hours; tested twice, first/second value where not matched
Method: as §1, §2

[6] = test system: Pseudomonas aeruginosa (clinical strain 1); assay: microbe, parasite or virus in culture; assay type: cell-based; details: 37° C. for 20 hours; tested twice, first/second value where not matched
[7] = test system: Pseudomonas aeruginosa (clinical strain 6); assay: MIC measurement, broth microdilution; assay type: cell-based; details: 37° C. for 20 hours; tested twice, first/second value where not matched
[8] = test system: Pseudomonas aeruginosa (clinical strain 8); assay: MIC measurement, broth microdilution; assay type: cell-based; details: 37° C. for 20 hours; tested twice, first/second value where not matched
[9] = test system: Pseudomonas aeruginosa (clinical strain 9); assay: MIC measurement, broth microdilution; assay type: cell-based; details: 37° C. for 20 hours; tested twice, first/second value where not matched
[10] = test system: Pseudomonas aeruginosa (clinical strain 12); assay: MIC measurement, broth microdilution; assay type: cell-based; details: 37° C. for 20 hours; tested twice, first/second value where not matched
Escherichia coli = assay: MIC measurement, broth microdilution; assay type: cell-based; details: 37° C. for 20 hours; tested twice, first/second value where not matched
Method: as §1, §2

Compound: Cc1onc(-c2ccccc2)c1C(=O)N[C@@H]1C(=O)N2[C@@H]1SC(C)(C)[C@@H]2C(=O)O [OX, oxacillin]
MIC (MRSA (clinical strain 1)): < 4 µg/mL
MIC (Staphylococcus aureus): 0.15 to 0.5 µg/mL (≈ 0.374 to 1.25 µM)
MIC ([1]; Staphylococcus epidermidis): 0.15 to 0.5 µg/mL (≈ 0.374 to 1.25 µM)
MIC (MRSA (clinical strain 2)): > 8 µg/mL
MIC, MSSA (clinical strain 1) (MSSA (clinical strain 1)): 3/8
MIC (MSSA (clinical strain 2)): < 2 µg/mL

Compound: CC[C@H](C)[C@H](NC(=O)[C@H](CC(C)C)NC(=O)[C@H](CCCCN)NC(=O)[C@H](CC(C)C)NC(=O)[C@@H](N)CCSC)C(=O)N[C@@H](Cc1ccccc1)C(=O)N[C@@H](CC(C)C)C(=O)N[C@@H](Cc1c[nH]cn1)C(=O)N[C@@H](CCCNC(=N)N)C(=O)N[C@@H](CC(C)C)C(=O)N[C@@H](CCCCN)C(=O)N[C@@H](CCCNC(=N)N)C(=O)N[C@@H](CCSC)C(=O)N[C@@H](CCCNC(=N)N)C(=O)N[C@@H](CCCCN)C(=O)N[C@@H](CCCNC(=N)N)C(=O)N[C@@H](CC(C)C)C(=O)N[C@H](CCCCN)C(=O)N[C@@H](CCCNC(=N)N)C(=O)N[C@@H](CCCCN)C(=O)O [SR-07] (H-MLKLIFLHRLKRMRKRL[dK]RK-OH; N-terminus and C-terminus assumed)
viability [2]: 16.5%
Concentration above which the polypeptide tended to exhibit toxicity, NHDFs (FIG. 4) [3]: > 30000 ng/mL
Ratio of peptide remaining relative to the starting concentration, rat serum, 0 min ([4]; 500 μg/mL, 0 min): 100
remaining at 0.05 h, 500 μg/mL ([4]; rat, rat serum, 3 min, read-out: Ratio of peptide remaining relative to the starting concentration, rat serum, 3 min): 51%
remaining at 10 min, 500 μg/mL ([4]; rat, rat serum, 10 min, read-out: Ratio of peptide remaining relative to the starting concentration, rat serum, 10 min): 16.5%
half-life ([4]; rat, serum, 500 μg/mL): 4 min
Ratio of peptide remaining relative to the starting concentration, human serum, 0 min ([5]; 500 μg/mL, 0 min): 100
remaining at 0.05 h, 500 μg/mL ([5]; human, human serum, 3 min, read-out: Ratio of peptide remaining relative to the starting concentration, human serum, 3 min): 98%
remaining at 10 min, 500 μg/mL ([5]; human, human serum, 10 min, read-out: Ratio of peptide remaining relative to the starting concentration, human serum, 10 min): 64.3%
half-life ([5]; human, serum, 500 μg/mL): 15 min

MIC, Clostridium ramosum (Clostridium ramosum): 32/64
MIC, Fusobacterium nucleatum (Fusobacterium nucleatum): 2/4
MIC, Acinetobacter baumanni (Acinetobacter baumanni): 4/8
MIC, Fusarium solani (Fusarium solani): 4/8
MIC, Pseudomonas aeruginosa (Pseudomonas aeruginosa): 16/32
MIC, Pseudomonas aeruginosa (clinical strain 1) [6]: 16/64
MIC, Pseudomonas aeruginosa (clinical strain 6) [7]: 32/64
MIC, Pseudomonas aeruginosa (clinical strain 8) [8]: 32/64
MIC, Pseudomonas aeruginosa (clinical strain 9) [9]: 32/128
MIC, Pseudomonas aeruginosa (clinical strain 12) [10]: 16/32
MIC, Escherichia coli (Escherichia coli): 8/16
MIC, Staphylococcus epidermidis [1]: 8/16
MIC, MSSA (clinical strain 1) (MSSA (clinical strain 1)): 16/32
Compound: KNLRRIIRKIIHIIKKYG [AP00196]
